From patent US12662491B2 (Redona Therapeutics, Inc., priority 2020, dated 2026)
Where two headings read alike, the source gives them in different places.

Target: T1, Zcchc11 enzyme (Homo sapiens, UniProt Q5TAX3)
T1 construct: made in house; host or cells: HEK293 cells (Zcchc11); E. coli Rosetta II (LIN28A)
T1 sequence (Q5TAX3 212-1420): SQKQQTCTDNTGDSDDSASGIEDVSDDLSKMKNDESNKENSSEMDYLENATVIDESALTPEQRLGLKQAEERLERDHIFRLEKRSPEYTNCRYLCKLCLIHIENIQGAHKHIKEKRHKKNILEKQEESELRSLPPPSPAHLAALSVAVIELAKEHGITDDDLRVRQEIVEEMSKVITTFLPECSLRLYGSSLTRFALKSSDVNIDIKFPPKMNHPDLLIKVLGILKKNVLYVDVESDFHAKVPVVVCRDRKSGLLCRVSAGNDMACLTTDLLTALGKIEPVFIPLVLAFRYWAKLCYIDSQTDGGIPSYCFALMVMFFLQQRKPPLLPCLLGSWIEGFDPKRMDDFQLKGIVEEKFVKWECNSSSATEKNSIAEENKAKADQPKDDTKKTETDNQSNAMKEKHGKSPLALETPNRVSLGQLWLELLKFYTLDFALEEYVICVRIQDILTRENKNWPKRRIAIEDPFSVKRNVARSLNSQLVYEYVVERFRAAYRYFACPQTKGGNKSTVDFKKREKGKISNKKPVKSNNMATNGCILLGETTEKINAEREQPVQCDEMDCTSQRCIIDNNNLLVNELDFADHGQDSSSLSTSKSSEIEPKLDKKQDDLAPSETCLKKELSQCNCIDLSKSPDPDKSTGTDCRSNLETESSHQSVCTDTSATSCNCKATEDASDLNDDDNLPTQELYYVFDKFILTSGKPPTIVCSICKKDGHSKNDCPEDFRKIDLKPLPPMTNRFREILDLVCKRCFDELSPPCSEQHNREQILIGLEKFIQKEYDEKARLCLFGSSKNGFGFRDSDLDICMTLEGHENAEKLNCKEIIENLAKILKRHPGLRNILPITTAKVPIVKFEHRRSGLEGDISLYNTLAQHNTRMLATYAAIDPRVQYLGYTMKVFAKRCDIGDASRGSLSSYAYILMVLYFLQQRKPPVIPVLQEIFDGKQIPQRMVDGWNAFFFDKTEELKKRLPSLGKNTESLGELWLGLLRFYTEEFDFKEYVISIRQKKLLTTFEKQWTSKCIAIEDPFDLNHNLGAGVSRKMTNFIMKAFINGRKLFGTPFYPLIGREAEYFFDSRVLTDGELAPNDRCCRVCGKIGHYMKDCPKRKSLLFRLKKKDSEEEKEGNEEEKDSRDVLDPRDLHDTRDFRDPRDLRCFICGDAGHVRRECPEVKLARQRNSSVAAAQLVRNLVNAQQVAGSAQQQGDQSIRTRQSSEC
Experiment: TUTase assay (Zcchc11 assay, Lin28a-dependent polyuridylation of pre-let-7)
Assay type: biochemical
Settings: read-out: Potency Lin28a-dep Z11 IC50
How it was run: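 Readout: time-dependent quench of 5′-fluorescein pre-let-7 (2 nM) as 3′-rhodamine A20 probe anneals to poly(U) tails. Enzyme 0.2 nM Zcchc11 (res. 212-1420), LIN28A 10 nM, UTP 5 uM; pH 7.3 HEPES, 150 mM KCl, 5 mM MgCl2, RT. 4-parameter IC50; 100% = DMSO, 0% = no UTP.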

[1] = Lin28a-dependent Zcchc11 (Z11) TUTase activity
[2] = Lin28a-dependent Zcchc11 (Z11) TUTase assay

| Compound | IC50 [1] | IC50 [2] |
| --- | --- | --- |
| COCCOc1cnc(-n2cc(C(=O)O)c(=O)c3cc(F)c(N4CCC[C@@H]4COc4ncccc4C)cc32)cn1 [Compound 125, (R)-6-fluoro-1-(5-(2-methoxyethoxy)pyrazin-2-yl)-7-(2-(((3-methylpyridin-2-yl)oxy)methyl)pyrrolidin-1-yl)-4-oxo-1,4-dihydro-quinoline-3-carboxylic acid] | ≤ 1000 nM | – |
| CN(C)C1CN(c2ccc(-n3cc(C(=O)O)c(=O)c4cc(Cl)c(N5CCC[C@@H]5COc5nc6ccn(C)c6cc5Cl)cc43)cn2)C1 [Compound 256, 6-chloro-7-[(2R)-2-[([6-chloro-1-methyl-pyrrolo [3,2-b]pyridin-5-yl]oxy)methyl]pyrrolidin-1-yl]-1-[6-[3-(dimethyl-amino)azetidin-1-yl]pyridin-3-yl]-4-oxoquinoline-3-carboxylic acid] | ≤ 1000 nM | – |
| O=C(O)c1cn(-c2ccc(Cl)cc2)c2cc(N3CCC[C@@H]3COc3ccccn3)c(F)cc2c1=O [Example 377, (R)-1-(4-chlorophenyl)-6-fluoro-4-oxo-7-(2-((pyridin-2-yloxy)methyl)pyrrolidin-1-yl)-1,4-dihydroquinoline-3-carboxylic acid] | – | ≤ 1000 nM |
| CN(C)C1CN(c2ccc(-n3cc(C(=O)O)c(=O)c4cc(Cl)c(N5CCC[C@@H]5COc5cnccc5Cl)cc43)cn2)C1 [Compound 320, 6-Chloro-7-[(2R)-2-[[(4 chloropyridin-3-yl)oxy]methyl]pyrrolidin-1-yl]-1-[6-[3-(dimethyl-amino)azetidin-1-yl]pyridin-3-yl]-4-oxoquinoline-3-carboxylic acid] | ≤ 1000 nM | – |
| Cc1ccnc(OC[C@H]2CCCN2c2cc3c(cc2F)c(=O)c(C(=O)O)cn3-c2ccccc2)c1 [Compound 94, (R)-6-fluoro-7-(2-(((4-methyl-pyridin-2-yl)oxy)methyl)pyrrolidin-1-yl)-4-oxo-1-phenyl-1,4-dihydro-quinoline-3-carboxylic acid] | ≤ 1000 nM | – |
| COc1ccc(Cl)c(OC[C@H]2CC(C)CN2c2cc3c(cc2Cl)c(=O)c(C(=O)O)cn3-c2ccc(N3CC(N(C)C)C3)nc2)n1 (stereo partly drawn) [Example 625, 6-chloro-7-((2R)-2-(((3-chloro-6-methoxypyridin-2-yl)oxy)methyl)-4-methylpyrrolidin-1-yl)-1-(6-(3-(dimethylamino)azetidin-1-yl)pyridin-3-yl)-4-oxo-1,4-dihydroquinoline-3-carboxylic acid] | – | ≤ 1000 nM |
| CN(C)C1CN(c2ccc(-n3cc(C(=O)O)c(=O)c4cc(Cl)c(N5C[C@@H](F)C[C@@H]5COc5ncccc5F)cc43)cn2)C1 [Example 466, 6-chloro-1-(6-(3-(dimethylamino)azetidin-1-yl)pyridin-3-yl)-7-((2R,4S)-4-fluoro-2-(((3-fluoropyridin-2-yl)oxy)methyl)pyrrolidin-1-yl)-4-oxo-1,4-dihydroquinoline-3-carboxylic acid] | – | ≤ 1000 nM |
| Nc1ccc(Cn2cc(C(=O)O)c(=O)c3cc(Cl)c(N4CCC[C@@H]4COc4ncccc4Cl)cc32)cn1 [Example 585, (R)-1-((6-aminopyridin-3-yl)methyl)-6-chloro-7-(2-(((3-chloropyridin-2-yl)oxy)methyl)pyrrolidin-1-yl)-4-oxo-1,4-dihydroquinoline-3-carboxylic acid] | – | 1000 to 10000 nM |
| CN(C)C1CN(c2ccc(-n3cc(C(=O)O)c(=O)c4cc(Cl)c(N5CC(F)(F)C[C@@H]5COc5ncccc5Cl)nc43)cn2)C1 [Compound 301, (R)-6-chloro-7-(2-(((3-chloropyridin-2-yl)oxy)methyl)-4,4-difluoro-pyrrolidin-1-yl)-1-(6-(3-(dimethyl-amino)azetidin-1-yl)pyridin-3-yl)-4-oxo-1,4-dihydro-1,8-naphthyridine-3-carboxylic acid] | ≤ 1000 nM | – |
| COc1ccc(-n2cc(C(=O)O)c(=O)c3cc(Cl)c(N4CCC[C@@H]4COc4ncccc4Cl)cc32)cn1 [Example 353, (R)-6-chloro-7-(2-(((3-chloropyridin-2-yl)oxy)methyl)pyrrolidin-1-yl)-1-(6-methoxypyridin-3-yl)-4-oxo-1,4-dihydroquinoline-3-carboxylic acid] | – | ≤ 1000 nM |
| CNC1CN(c2ccc(-n3cc(C(=O)O)c(=O)c4cc(Cl)c(N5CCC[C@@H]5COc5ncccc5Cl)cc43)cn2)C1 [Example 477, (R)-6-chloro-7-(2-(((3-chloropyridin-2-yl)oxy)methyl)pyrrolidin-1-yl)-1-(6-(3-(methyl-amino)azetidin-1-yl)pyridin-3-yl)-4-oxo-1,4-dihydroquinoline-3-carboxylic acid] | – | ≤ 1000 nM |
| COc1ccc(Cl)c(OC[C@H]2C[C@@H]3C[C@@H]3N2c2cc3c(cc2Cl)c(=O)c(C(=O)O)cn3-c2ccc(N3CC(N(C)C)C3)nc2)n1 [Example 661, 6-chloro-7-((1S,3R,5S)-3-(((3-chloro-6-methoxypyridin-2-yl)oxy)methyl)-2-azabicyclo[3.1.0]hexan-2-yl)-1-(6-(3-(dimethylamino)azetidin-1-yl)pyridin-3-yl)-4-oxo-1,4-dihydroquinoline-3-carboxylic acid] | – | ≤ 1000 nM |

Next, values leading:

| IC50 [1] | IC50 [2] | Compound |
| --- | --- | --- |
| – | ≤ 1000 nM | COc1ccc(Cl)c(OC[C@H]2C[C@@H](O)CN2c2cc3c(cc2Cl)c(=O)c(C(=O)O)cn3-c2ccc(N3CC(N(C)C)C3)nc2)n1 [Example 641, 6-chloro-7-((2R,4R)-2-(((3-chloro-6-methoxypyridin-2-yl)oxy)methyl)-4-hydroxypyrrolidin-1-yl)-1-(6-(3-(dimethylamino)azetidin-1-yl)pyridin-3-yl)-4-oxo-1,4-dihydroquinoline-3-carboxylic acid] |
| – | ≤ 1000 nM | COc1ccnc(OC[C@@H]2CCCN2c2cc3c(cc2Cl)c(=O)c(C(=O)O)cn3-c2ccc(N3CC(N(C)C)C3)nc2)c1Cl [Example 668, (S)-6-chloro-7-(2-(((3-chloro-4-methoxypyridin-2-yl)oxy)methyl)pyrrolidin-1-yl)-1-(6-(3-(dimethylamino)azetidin-1-yl)pyridin-3-yl)-4-oxo-1,4-dihydroquinoline-3-carboxylic acid] |
| – | 1000 to 10000 nM | O=C(O)c1cn(-c2cn[nH]c2)c2cc(N3CCC[C@@H]3COc3ncccc3Cl)c(Cl)cc2c1=O [Example 434, (R)-6-chloro-7-(2-(((3-chloropyridin-2-yl)oxy)methyl)pyrrolidin-1-yl)-4-oxo-1-(1H-pyrazol-4-yl)-1,4-dihydroquinoline-3-carboxylic acid] |
| – | ≤ 1000 nM | COc1cnc(OC[C@H]2C[C@H]3C[C@H]3N2c2cc3c(cc2Cl)c(=O)c(C(=O)O)cn3-c2ccc(N3CC(N(C)C)C3)nc2)c(Cl)c1 [Example 662, 6-chloro-7-((1R,3R,5R)-3-(((3-chloro-5-methoxypyridin-2-yl)oxy)methyl)-2-azabicyclo[3.1.0]hexan-2-yl)-1-(6-(3-(dimethylamino)azetidin-1-yl)pyridin-3-yl)-4-oxo-1,4-dihydroquinoline-3-carboxylic acid] |
| – | ≤ 1000 nM | COc1ccc(Cl)c(OC[C@H]2[C@@H](OC)CCN2c2cc3c(cc2Cl)c(=O)c(C(=O)O)cn3-c2ccc(N3CC(N(C)C)C3)nc2)n1 [Example 684, 6-chloro-7-((2S,3S)-2-(((3-chloro-6-methoxypyridin-2-yl)oxy)methyl)-3-methoxypyrrolidin-1-yl)-1-(6-(3-(dimethylamino)azetidin-1-yl)pyridin-3-yl)-4-oxo-1,4-dihydroquinoline-3-carboxylic acid] |
| – | ≤ 1000 nM | COc1ccnc(OC[C@H]2C[C@H]3C[C@H]3N2c2nc3c(cc2F)c(=O)c(C(=O)O)cn3-c2ccc(N3CC(N(C)C)C3)nc2)c1Cl [Example 678, 7-((1R,3R,5R)-3-(((3-chloro-4-methoxypyridin-2-yl)oxy)methyl)-2-azabicyclo[3.1.0]hexan-2-yl)-1-(6-(3-(dimethylamino)azetidin-1-yl)pyridin-3-yl)-6-fluoro-4-oxo-1,4-dihydro-1,8-naphthyridine-3-carboxylic acid] |
